Assays:
[1] = system: PC3 cells; assay: In vitro therapy study, trypan blue exclusion viability of PC3 cells; assay type: cell-based, human; settings: monotherapy (rapamycin 10 nM or ^177Lu-labelled LF1 1.85 MBq), 72 h
Method: For the in vitro therapy studies, PC3 cells were seeded at a density of 50,000–100,000 cells (depending on the investigating time point: 100000, 75,000 and 50,000 cells for 24, 48, 72 h respectively) in 12-well plates and incubated overnight with cultivation medium at 37 °C and 5% CO2. The next day, the medium was removed, the cells washed, and culture medium containing either rapamycin (10 nM, dissolved in dimethyl sulfoxide (DMSO)) or DMSO (control, the final concentration of DMSO in the culture medium was 0.5%) was added. The plates were incubated at 37 °C and 5% CO2 for a period of 6 h. Afterwards, the medium containing rapamycin or DMSO was removed and fresh medium was added in each well. […] The viability of the cells was accessed by the trypan blue exclusion assay after incubation at 37 °C and 5% CO2 for 24, 48 and 72 h. The experiment was performed twice in triplicate.

[2] = molecular target: T1, GRPr (Homo sapiens, UniProt P30550); assay: Saturation binding studies on intact PC3 cells; settings: for Bmax (concentration of the radiotracer required to saturate the receptors): intact PC3 cells, 4 °C, 120 min, normalized for 1 × 10^6 cells per well
T1 construct: For receptor saturation analysis, PC3 cells were seeded at a density of 0.8–1 million cells per well; endogenous in cells; host or cells: PC3 (human prostate adenocarcinoma cell line), intact cells
Method: For receptor saturation analysis, PC3 cells were seeded at a density of 0.8–1 million cells per well in 6-well plates and incubated overnight with medium (DMEM: F12 (1:1) containing 1% FBS, 100 U/mL penicillin and 100 μg/mL streptomycin). The next day, the medium was removed, the cells washed and incubated for 1 h at 37 °C with fresh medium. […] After the addition of the radioligands, the cells were incubated for 120 min at 4 °C. Non-specific binding was determined in the presence of Tyr^4-Bombesin at a final concentration of 1 μM. Then the cells were washed twice with ice-cold PBS, followed by solubilization with 1 N NaOH and the cell-associated radioactivity was measured using a gamma-counter. Specific binding was plotted against the total molar concentration of the added radiotracer. The Kd values and the concentration of the radiotracer required to saturate the receptors (Bmax) were determined by nonlinear regression using GraphPad (Prism 8 Graph Pad Software, San Diego, CA). For all the cell studies the values are normalized for 1 × 10^6 cells per well and all data are from two independent experiments with triplicates in each experiment.

[3] = system: PC3 cells; assay: Internalization studies in PC3 cells; assay type: cell-based, human; settings: 37 °C; for specifically internalized activity / total cell associated uptake: 6 h; for total cell associated uptake: % of applied radioactivity
Method: For internalization experiments, PC3 cells were seeded into 6-well plates and treated as described above. […] To determine nonspecific membrane binding and internalization, excess of Tyr^4-Bombesin (final concentration 1 μΜ) was added to selected wells. At each time point, the internalization was stopped by removing the medium and washing the cells twice with ice-cold PBS. To remove the receptor-bound radioligand, an acid wash was carried out twice with a 0.1 M glycine buffer pH 2.8 for 5 min on ice. Finally, cells were solubilized with 1 N NaOH. The radioactivity of the culture medium, the receptor-bound, and the internalized fractions were measured in a γ-counter.

T1 sequence (P30550 whole entry): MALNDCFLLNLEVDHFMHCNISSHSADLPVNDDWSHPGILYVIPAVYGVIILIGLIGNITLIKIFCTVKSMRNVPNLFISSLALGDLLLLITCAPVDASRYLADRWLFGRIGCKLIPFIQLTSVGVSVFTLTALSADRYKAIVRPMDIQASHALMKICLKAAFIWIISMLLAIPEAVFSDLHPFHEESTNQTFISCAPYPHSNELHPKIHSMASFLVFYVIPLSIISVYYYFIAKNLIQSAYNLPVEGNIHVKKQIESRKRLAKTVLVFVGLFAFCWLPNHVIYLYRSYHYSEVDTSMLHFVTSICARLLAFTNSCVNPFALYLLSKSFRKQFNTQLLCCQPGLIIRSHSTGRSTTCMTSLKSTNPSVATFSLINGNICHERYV

**Q.** With `CO[C@H]1C[C@@H]2CC[C@@H](C)[C@@](O)(O2)C(=O)C(=O)N2CCCC[C@H]2C(=O)O[C@H]([C@H](C)C[C@@H]2CC[C@@H](O)[C@H](OC)C2)CC(=O)[C@H](C)/C=C(\C)[C@@H](O)[C@@H](OC)C(=O)[C@H](C)C[C@H](C)/C=C/C=C/C=C/1C` [rapamycin] as the molecule, how does the cell viability [1] read?
**A.** approx. 50%

**Q.** Which results are given for `CC(C)C[C@H](NC(=O)CC(O)[C@H](CC(C)C)NC(=O)[C@H](Cc1c[nH]cn1)NC(=O)CNC(=O)[C@@H](NC(=O)[C@H](C)NC(=O)[C@H](Cc1c[nH]c2ccccc12)NC(=O)[C@H](CCC(N)=O)NC(=O)[C@@H](Cc1ccccc1)NC(=O)CN1CCC(NC(=O)CCCCC2(N(CC(=O)O)CC(=O)O)CN(CC(=O)O)CCN(CC(=O)O)C2)CC1)C(C)C)C(N)=O` (some centres unmarked) [^111In-labelled LF1, metal not drawn]?
**A.** Bmax (concentration of the radiotracer required to saturate the receptors) ([2]; listed as 111/natIn-LF1): 0.6 ± 0.06 nM; specifically internalized activity [3]: 9.2 ± 0.5%; total cell associated uptake [3]: 38.3 ± 2.5%

**Q.** `CC(C)C[C@H](NC(=O)CC(O)[C@H](CC(C)C)NC(=O)[C@H](Cc1c[nH]cn1)NC(=O)CNC(=O)[C@@H](NC(=O)[C@H](C)NC(=O)[C@H](Cc1c[nH]c2ccccc12)NC(=O)[C@H](CCC(N)=O)NC(=O)[C@@H](Cc1ccccc1)NC(=O)CN1CCC(NC(=O)CCCCC2(N(CC(=O)O)CC(=O)O)CN(CC(=O)O)CCN(CC(=O)O)C2)CC1)C(C)C)C(N)=O` (some centres unmarked) [^68Ga-labelled LF1, metal not drawn] was tested. Which “Bmax (concentration of the radiotracer required to saturate the receptors)” value (from here on “Bmax”) ([2]; listed as 68/natGa-LF1) did it give?
**A.** 0.4 ± 0.02 nM

**Q.** What about the “factor of lower affinity compared to ^111/natIn-LF1” value ([2]; ratio of Kd values, PC3 cells) of the same molecule?
**A.** ~3

**Q.** What about the internalized activity ([3]; 4 h) of the same molecule?
**A.** 2.8 ± 0.5%

**Q.** With `CC(C)C[C@H](NC(=O)CC(O)[C@H](CC(C)C)NC(=O)[C@H](Cc1c[nH]cn1)NC(=O)CNC(=O)[C@@H](NC(=O)[C@H](C)NC(=O)[C@H](Cc1c[nH]c2ccccc12)NC(=O)[C@H](CCC(N)=O)NC(=O)[C@@H](Cc1ccccc1)NC(=O)CN1CCC(NC(=O)CN2CCN(CC(=O)O)CCN(CC(=O)O)CCN(CC(=O)O)CC2)CC1)C(C)C)C(N)=O` (some centres unmarked) [^177/natLu-RM2, metal not drawn, reference compound] as the molecule, how does the “Bmax” value [2] read?
**A.** 0.8 ± 0.03 nM

**Q.** How did the “Bmax” value ([2]; listed as 177/natLu-LF1) turn out when `CC(C)C[C@H](NC(=O)CC(O)[C@H](CC(C)C)NC(=O)[C@H](Cc1c[nH]cn1)NC(=O)CNC(=O)[C@@H](NC(=O)[C@H](C)NC(=O)[C@H](Cc1c[nH]c2ccccc12)NC(=O)[C@H](CCC(N)=O)NC(=O)[C@@H](Cc1ccccc1)NC(=O)CN1CCC(NC(=O)CCCCC2(N(CC(=O)O)CC(=O)O)CN(CC(=O)O)CCN(CC(=O)O)C2)CC1)C(C)C)C(N)=O` (some centres unmarked) [^177Lu-labelled LF1, metal not drawn] was run?
**A.** 0.8 ± 0.05 nM

**Q.** And the specifically internalized activity [3]?
**A.** 8.9 ± 0.8%

**Q.** And the “total cell associated uptake” value [3]?
**A.** 34.5 ± 2.3%
